The values below come from patent US8673910B2, “Proteasome inhibitors for selectively inducing apoptosis in cancer cells” (H. Lee Moffitt Cancer Center and Research Institute, priority 2008, dated 2014).

“And” between values parts separate entries of the source, which are not always exact repeats. Equal entries are not always repeated. Where two headings read alike, the source gives them in different places.

Data set [1] deals with MCF-7 breast cancer cells. The experiment in a line: MTT metabolism assay. As to conditions: MCF-7, 72 h (Table 6), read-out: IC50 for cell viability measured by MTT assay in MCF-7 human breast cancer cells. It counts as cell-based, human. As to the method: Cells were plated in 96-well plates in 100 μl medium and allowed to attach overnight. […] Media was aspirated after 24 or 72 hours and replaced with 100 μl complete media containing 1 mg/ml MTT and incubated for three hours at 37° C. in 5% CO2 humidified incubator. Media was then aspirated and DMSO was added. Cells were incubated for 10 min at room temperature while shaking, and the absorbance was determined at 540 nm using a μQuant spectrophotometric plate reader (Bio-TEK, Winooski, Vt.).
Cells were plated in 96-well plates in 100 μl medium and allowed to attach overnight. Cells were then incubated for 72 h with varying concentrations of PI-083, YG1-080, YG1-075, HL2-090-2, HL2-090-4, HL2-090-6, and HL2-090-9 or vehicle control (DMSO). Media was aspirated and replaced with 100 μl complete media containing 1 mg/ml MTT and incubated for three hours at 37° C. in 5% CO2 humidified incubator. Media was then aspirated and DMSO was added. Cells were incubated for 10 min at room temperature while shaking, and the absorbance was determined at 540 nm using a μQuant spectrophotometric plate reader (Bio-TEK, Winooski, Vt.).

Data set [2] addresses T1, CT-L activity of the proteasome in MCF-7 human breast cancer cells (Homo sapiens, UniProt P20618+P28074).
T1 construct: endogenous in cells; host or cells: MCF-7
Put plainly: Proteolytic activity in cell lysates of treated intact MCF-7 cells. It counts as cell-based. As to conditions: intact cells treated 16 h, CT-L measured in cell lysates; two determinations where two values. As to the method: Human MCF-7 breast cancer cells were cultured in DMEM medium containing 10% fetal calf serum (FCS) and 100 units/ml of penicillin and 100 μg/ml of streptomycin. Cells were maintained at 37° C. in a humidified incubator in an atmosphere of 5% CO2. Cells were treated with different concentrations of PI-083, YG1-080, YG1-075, HL2-090-2, HL2-090-4, HL2-090-6, and HL2-090-9 or vehicle control (DMSO) for 16 h.
Intact cells were treated with compounds and lysates prepared as described above. Cell lysates (5 μg) was incubated with 20 μM Suc-Leu-Leu-Val-Tyr-AMC for the CT-L activity for 1 h at 37° C. in 100 μl of assay buffer (50 mM Tris-HCl, pH 7.6). After incubation, production of hydrolyzed 7-amido-4-methyl-coumarin (AMC) groups was measured using a WALLAC Victor^2 1420 Multilabel Counter with an excitation filter of 355 nm and an emission filter of 460 nm (Perkin Elmer Life Sciences, Turku, Finland).

Data set [3] has as its target T2, chymotrypsin-like (CT-L) activity of purified 20S rabbit proteasome (Oryctolagus cuniculus, UniProt G1T4Q9).
T2 sequence (G1T4Q9 1-263): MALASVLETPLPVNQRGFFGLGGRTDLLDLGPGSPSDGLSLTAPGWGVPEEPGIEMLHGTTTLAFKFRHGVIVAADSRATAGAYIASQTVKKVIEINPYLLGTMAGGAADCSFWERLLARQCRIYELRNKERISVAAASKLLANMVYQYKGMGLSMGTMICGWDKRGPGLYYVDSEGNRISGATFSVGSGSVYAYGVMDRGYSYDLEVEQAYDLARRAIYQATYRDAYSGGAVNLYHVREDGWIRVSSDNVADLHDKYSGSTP
The experiment in a line: Proteolytic activity of purified 20S proteasome, fluorogenic substrate Suc-Leu-Leu-Val-Tyr-AMC. As to conditions: purified rabbit 20S proteasome. The format is biochemical.
Experimental: The inhibitory activity of the compounds was calculated based on vehicle control). This technique monitors the hydrolytic release of a coumarin species from a synthetic peptide substrate.
The assay was conducted by using a fluorogenic peptide as substrate to test synthesized compounds for inhibitory activity against the chymotrypsin-like activity of the purified rabbit 20S proteasome. Briefly, 70 ng of purified 20S proteasome was incubated with 20 μM Suc-Leu-Leu-Val-Tyr-AMC for 1 hour at 37° C. in 100 μl of assay buffer (50 mM Tris-HCl, pH 7.6) with or without inhibitors. After incubation, production of hydrolyzed 7-amido-4-methyl-coumarin (AMC) was measured using a WALLAC Victor2 1420 Multilabel Counter with an excitation filter of 355 nm and an emission filter of 460 nm (Perkin Elmer Life Sciences, Turku, Finland). The inhibitory activity of the compounds was calculated based on vehicle control.

Setting [4] is: PI-083 derivatives (Table 7, naphthoquinone library), read-out: IC50 (μM) Chymotrypsin-like activity.

As to `NS(=O)(=O)c1ccc(NC2=C(Cl)C(=O)c3ccccc3C2=O)cc1` [Compound 2t, 4-(3-chloro-1,4-dioxo-1,4-dihydronaphthalen-2-ylamino)benzenesulfonamide], the melting point – broadly, the temperature of the solid-liquid transition – was over 300 °C. In data set [1] (Homo sapiens, MCF7, 72 h), the IC50 – broadly, the point on the concentration scale where inhibition reaches its midpoint – is 2.41 ± 0.19 µM. Further, the IC50 in data set [2] was 5.1 µM and 4.7 µM. For the same molecule, in data set [3] (setting [4]), the IC50 is 1.1 µM. Further, the “proteasome (chymotrypsin-like) inhibitory activity, in words” value in data set [3] is “equally as active as PI-083”.

In the case of `Cc1nnc(NS(=O)(=O)c2ccc(NC3=C(Cl)C(=O)c4ccccc4C3=O)cc2)s1` [Compound 2f, 4-(3-chloro-1,4-dioxo-1,4-dihydronaphthalen-2-ylamino)-N-(5-methyl-1,3,4-thiadiazol-2-yl)benzenesulfonamide], the melting point was 220 °C (dec.). In data set [2], this molecule yielded an IC50 of over 10 µM. Further, the 50% inhibitory concentration (IC50) in data set [3] (setting [4]) stood at 3.9 µM.

`Cc1cc(NS(=O)(=O)c2ccc(NC3=C(Cl)C(=O)c4ccccc4C3=O)cc2)no1` [Compound 2d, 4-(3-chloro-1,4-dioxo-1,4-dihydronaphthalen-2-ylamino)-N-(5-methylisoxazol-3-yl)benzenesulfonamide] registered a melting point of 215 to 217 °C. In data set [2], the IC50 is over 10 µM. The IC50 in data set [3] (setting [4]) was determined as 5.9 µM.

As for `Cc1noc(NS(=O)(=O)c2ccc(NC3=C(Cl)C(=O)c4ccccc4C3=O)cc2)c1C` [Compound 2h, 4-(3-chloro-1,4-dioxo-1,4-dihydronaphthalen-2-ylamino)-N-(3,4-dimethylisoxazol-yl)-benzenesulfonamide], the melting point fell in the range of 208 to 210 °C. In data set [2], the IC50 was over 10 µM. Besides, the IC50 in data set [3] (setting [4]) is 6.4 µM.

`O=C1C(Cl)=C(Nc2ccc(S(=O)(=O)Nc3nccs3)cc2)C(=O)c2ccccc21` [Compound 2s, 4-(3-chloro-1,4-dioxo-1,4-dihydronaphthalen-2-ylamino)-N-(thiazol-2-yl)benzene-sulfonamide] gave a melting point of 286 to 288 °C. In data set [2], this molecule yielded a 50% inhibitory concentration (IC50) of over 10 µM. Moreover, the 50% inhibitory concentration (IC50) in data set [3] (setting [4]) turned out to be 3.3 µM.

With `O=C(O)CSc1cc(NS(=O)(=O)c2cccs2)c2ccccc2c1O` [Compound 10a, 2-(1-hydroxy-4-(thiophene-2-sulfonamido)naphthalen-2-ylthio)acetic acid], the 50% inhibitory concentration (IC50) in data set [1] (Homo sapiens, MCF7, 72 h) is 7.67 ± 1.61 µM; in data set [1], 10.9 ± 2.77 µM; in data set [3] (hydronaphthoquinone sulfonamides (Table 9), listed as HLM-008182, read-out: IC50 (μM), inhibition of chymotrypsin-like activity) it was 0.65 ± 0.4 µM; in data set [3] (hydronaphthoquinone sulfonamides (Table 9), read-out: IC50 (μM), inhibition of chymotrypsin-like activity), 1.3 ± 0.76 µM. Moreover, in data set [3], the “proteasome (chymotrypsin-like) inhibitory activity, in words” value is “comparable proteasome inhibition activity to the commercial sample HLM-008182”.

In turn, `O=C1C(Cl)=C(Nc2ccc(S(=O)(=O)Nc3cnn(-c4ccccc4)c3)cc2)C(=O)c2ccccc21` [Compound 2b, 4-(3-chloro-1,4-dioxo-1,4-dihydronaphthalen-2-ylamino)-N-(1-phenyl-1H-pyrazol-4-yl)benzenesulfonamide] gave a melting point of 230 to 231 °C. This molecule had an IC50 in data set [2] of over 10 µM. In addition, in data set [3] (setting [4]), the IC50 was determined as 7.4 µM.
